Test results as given in US10752617B2 (GALDERMA RESEARCH & DEVELOPMENT, priority 2014, dated 2020).

What follows are molecules tested against T1, GAL4-RORγ (GAL4 DBD fused to the ROR gamma ligand-binding domain) (Homo sapiens, UniProt P51449) (assay: GAL4-RORγ transactivation (luciferase reporter, HG5LN HeLa line)). Settings: HG5LN HeLa cells, 18 hours incubation, luciferase luminescence, read-out: IC50 hRORg.
T1 construct: expressed in transfected cells; host or cells: HG5LN (HeLa line with GAL4-responsive luciferase reporter)
T1 sequence (P51449 269-508 limits assumed): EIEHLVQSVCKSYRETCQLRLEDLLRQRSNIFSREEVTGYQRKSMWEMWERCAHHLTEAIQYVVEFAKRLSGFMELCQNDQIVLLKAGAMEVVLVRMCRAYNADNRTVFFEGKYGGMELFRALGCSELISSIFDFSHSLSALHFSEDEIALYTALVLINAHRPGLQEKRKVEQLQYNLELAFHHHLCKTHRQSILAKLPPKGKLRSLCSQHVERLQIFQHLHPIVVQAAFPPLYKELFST
Format: cell-based
Source text: In the tables described above, the median inhibitory concentrations IC50 for the compounds belonging to formula (I) according to the invention have been given according to the following models:
GAL4-RORγ Transactivation
The RORγ transactivation model was developed from the line HG5LN, which is a HeLa line that stably expresses a luciferase reporter gene controlled by a pentamer of the GAL4 recognition domain of yeast and of a β-globin promoter. The HG5LN line was stably transfected by the DNA-binding domain (DBD) of GAL4 fused to the ROR gamma ligand-binding domain (LBD). Molecules that inhibit the ROR gamma constitutive activity reduce the luciferase expression, thus leading to a reduction in the emitted luminescence.
The cells are seeded in 384-well plates (5000 cells in 45 μL/well of culture medium containing 10% fetal calf serum) and incubated for 4 hours at 37° C., 5% CO2. 5 μL of the test molecules (compounds described in the tables described above) are then added to each well and the plates are incubated for 18 hours at a temperature of 37° C. under 5% of CO2. 20 μL of luciferase substrate (Promega) are added to each well and the luminescence emitted is read by a microplate reader.
The luminescence units (“RLU”) are normalized by positive controls (“POS” containing a saturated concentration of N-(2,2,2-trifluoroethyl)-N-[4-[2,2,2-trifluoro-1-hydroxy-1-(trifluoromethyl)ethyl]phenyl])benzenesulfonamide and negative controls (“NEG” containing DMSO): % inhibition=((RLU−NEG)*100)/(POS−NEG). The IC50 values are calculated from a 4-parameter logistic model using the XLFit software (IDBS).

SMILES | IC50
CCc1ccc(N([C@H](C)CC)S(=O)(=O)c2ccc3c(cnn3CC3CCOCC3)c2)cc1 [Compound 2, 1-(tetrahydropyran-4-ylmethyl)-1H-indazole-5-sulfonic acid ((R)-sec-butyl)(4-ethylphenyl)amide] | 100 to 1000 nM
CCc1ccc(N(C2CC2)S(=O)(=O)c2ccc3c(cnn3CC3CCOCC3)c2)cc1 [Compound 3, 1-(tetrahydropyran-4-ylmethyl)-1H-indazole-5-sulfonic acid cyclopropyl(4-ethylphenyl)amide] | > 1000 nM
CCc1ccc(N(CC(C)C)S(=O)(=O)c2ccc3c(Br)nn(C4CCCCO4)c3c2)cc1 (centres unmarked) [Compound 4, 3-bromo-1-(tetrahydropyran-2-yl)-1H-indazole-6-sulfonic acid (4-ethylphenyl)isobutylamide] | > 1000 nM
CCc1ccc(N(CC2CCOCC2)S(=O)(=O)c2ccc3c(cnn3CC3CCOCC3)c2)cc1 [Compound 5, 1-(tetrahydropyran-4-ylmethyl)-1H-indazole-5-sulfonic acid (4-ethylphenyl)(tetrahydropyran-4-ylmethyl)amide] | > 1000 nM
CCCN(c1ccc(CC)cc1)S(=O)(=O)c1ccc2c(cnn2CC2CCOCC2)c1 [Compound 8, 1-(tetrahydropyran-4-ylmethyl)-1H-indazole-5-sulfonic acid (4-ethylphenyl)propyl] | > 1000 nM
CCCCN(c1ccc(CC)cc1)S(=O)(=O)c1ccc2c(cnn2CC2CCOCC2)c1 [Compound 9, 1-(tetrahydropyran-4-ylmethyl)-1H-indazole-5-sulfonic acid butyl(4-ethylphenyl)amide] | > 1000 nM
Cc1ccc(C)c(N(CC(C)C)S(=O)(=O)c2ccc3c(cnn3CC3CCOCC3)c2)c1 [Compound 11, 1-(tetrahydropyran-4-ylmethyl)-1H-indazole-5-sulfonic acid (2,5-dimethylphenyl)isobutylamide] | 100 to 1000 nM
CCCCc1ccc(N(CC(C)C)S(=O)(=O)c2ccc3c(cnn3CC3CCOCC3)c2)c(C)c1 [Compound 13, 1-(tetrahydropyran-4-ylmethyl)-1H-indazole-5-sulfonic acid (4-butyl-2-methylphenyl)isobutylamide] | 100 to 1000 nM
CCc1ccc(N(CC(C)C)S(=O)(=O)c2ccc3c(c2)c(CO)nn3CC2CCOCC2)cc1 [Compound 14, 3-hydroxymethyl-1-(tetrahydropyran-4-ylmethyl)-1H-indazole-5-sulfonic acid (4-ethylphenyl)isobutylamide] | > 1000 nM
CCc1ccc(N(CC2COC2)S(=O)(=O)c2ccc3c(cnn3CC3CCOCC3)c2)cc1 [Compound 16, 1-(tetrahydropyran-4-ylmethyl)-1H-indazole-5-sulfonic acid (4-ethylphenyl)oxetan-3-ylmethylamide] | > 1000 nM
CCc1ccc(N(CC(C)C)S(=O)(=O)c2ccc3c(cnn3C3CCN(C(C)=O)C3)c2)cc1 (centres unmarked) [Compound 17, 1-(1-acetylpyrrolidin-3-yl)-1H-indazole-5-sulfonic acid (4-ethylphenyl)isobutylamide] | 100 to 1000 nM
CCc1ccc(N(CC(C)C)S(=O)(=O)c2ccc3c(c2)c(OCC2CCOCC2)nn3CC2CCOCC2)cc1 [Compound 18, 3-(tetrahydropyran-4-ylmethoxy)-1-(tetrahydropyran-4-ylmethyl)-1H-indazole-5-sulfonic acid (4-ethylphenyl)isobutylamide] | > 1000 nM
CCc1ccc(N(CC(C)C)S(=O)(=O)c2ccc3c(cnn3CC3CN(C(C)=O)C3)c2)cc1 [Compound 19] | > 1000 nM
CCc1ccc(N(CC(C)C)S(=O)(=O)c2ccc3c(cnn3CC3CCN(C(C)=O)C3)c2)cc1 (centres unmarked) [Compound 20, 1-((1-acetylpyrrolidin-3-yl)methyl)-N-(4-ethylphenyl)-N-isobutyl-1H-indazole-5-sulfonamide] | > 1000 nM
CCc1ccc(N(CC(C)C)S(=O)(=O)c2ccc3c(cnn3CC3CCCOC3)c2)cc1 (centres unmarked) [Compound 22, N-(4-ethylphenyl)-N-isobutyl-1-((tetrahydro-2H-pyran-3-yl)methyl)-1H-indazole-5-sulfonamide] | > 1000 nM
CCc1ccc(N(CC(C)C)S(=O)(=O)c2ccc3c(cnn3Cc3ccccc3)c2)cc1 [Compound 23, 1-benzyl-N-(4-ethylphenyl)-N-isobutyl-1H-indazole-5-sulfonamide] | > 1000 nM
CCc1ccc(N(CC2CCC2)S(=O)(=O)c2ccc3c(cnn3CC3CCOCC3)c2)cc1 [Compound 24, N-(cyclobutylmethyl)-N-(4-ethylphenyl)-1-((tetrahydro-2H-pyran-4-yl)methyl)-1H-indazole-5-sulfonamide] | 100 to 1000 nM
Cc1cc(C)cc(N(CC(C)C)S(=O)(=O)c2ccc3c(cnn3CC3CCOCC3)c2)c1 [Compound 28, 1-(tetrahydropyran-4-ylmethyl)-1H-indazole-5-sulfonic acid (3,5-dimethylphenyl)isobutylamide] | > 1000 nM
CCc1ccc(N(C(C)C)S(=O)(=O)c2ccc3c(cnn3CC3CCOCC3)c2)cc1 [Compound 29, N-(4-ethylphenyl)-N-isopropyl-1-((tetrahydro-2H-pyran-4-yl)methyl)-1H-indazole-5-sulfonamide] | > 1000 nM
CCc1ccc(N(C(C)CC)S(=O)(=O)c2ccc3c(cnn3CC3CCOCC3)c2)cc1 (centres unmarked) [Compound 30, 1-(tetrahydropyran-4-ylmethyl)-1H-indazole-5-sulfonic acid sec-butyl(4-ethylphenyl)amide] | 100 to 1000 nM
CCc1ccc(N(CCC(C)C)S(=O)(=O)c2ccc3c(cnn3CC3CCOCC3)c2)cc1 [Compound 35, N-(4-ethylphenyl)-N-isopentyl-1-((tetrahydro-2H-pyran-4-yl)methyl)-1H-indazole-5-sulfonamide] | > 1000 nM
CCc1ccc(N(CC(C)C)S(=O)(=O)c2ccc3c(cnn3C3CCOCC3)c2)cc1 [Compound 38, 1-(tetrahydropyran-4-yl)-1H-indazole-5-sulfonic acid (4-ethylphenyl)isobutylamide] | > 1000 nM

Second part, the molecule after the results:

IC50 | SMILES
100 to 1000 nM | CCc1ccc(N(CC(C)C)S(=O)(=O)c2ccc3c(cnn3Cc3c(C)noc3C)c2)cc1 [Compound 6, 1-((3,5-dimethylisoxazol-4-yl)methyl)-N-(4-ethylphenyl)-N-isobutyl-1H-indazole-5-sulfonamide]
> 1000 nM | CC(C)CN(c1cc(Cl)ccc1F)S(=O)(=O)c1ccc2c(cnn2CC2CCOCC2)c1 [Compound 10, 1-(tetrahydropyran-4-ylmethyl)-1H-indazole-5-sulfonic acid (5-chloro-2-fluorophenyl)isobutylamide]
> 1000 nM | CCc1ccc(N(CC(C)C)S(=O)(=O)c2ccc3c(cnn3CC3CCOC3)c2)cc1 (centres unmarked) [Compound 21, N-(4-ethylphenyl)-N-isobutyl-1-((tetrahydrofuran-3-yl)methyl)-1H-indazole-5-sulfonamide]
> 1000 nM | COc1cccc(N(CC(C)C)S(=O)(=O)c2ccc3c(cnn3CC3CCOCC3)c2)c1 [Compound 25, 1-(tetrahydropyran-4-ylmethyl)-1H-indazole-5-sulfonic acid (3-methoxyphenyl)isobutylamide]
> 1000 nM | Cc1cccc(N(CC(C)C)S(=O)(=O)c2ccc3c(cnn3CC3CCOCC3)c2)c1 [Compound 26, 1-(tetrahydropyran-4-ylmethyl)-1H-indazole-5-sulfonic acid (3-methylphenyl)isobutylamide]
100 to 1000 nM | Cc1ccc(N(CC(C)C)S(=O)(=O)c2ccc3c(cnn3CC3CCOCC3)c2)c(C)c1 [Compound 27, 1-(tetrahydropyran-4-ylmethyl)-1H-indazole-5-sulfonic acid (2,4-dimethylphenyl)isobutylamide]
> 1000 nM | CCc1ccc(N(CC2CC2)S(=O)(=O)c2ccc3c(cnn3CC3CCOCC3)c2)cc1 [Compound 31, N-(cyclopropylmethyl)-N-(4-ethylphenyl)-1-((tetrahydro-2H-pyran-4-yl)methyl)-1H-indazole-5-sulfonamide]
< 100 nM | CCc1ccc(N(C2CCCC2)S(=O)(=O)c2ccc3c(cnn3CC3CCOCC3)c2)cc1 [Compound 32, 1-(tetrahydropyran-4-ylmethyl)-1H-indazole-5-sulfonic acid cyclopentyl(4-ethylphenyl)amide]
> 1000 nM | CCc1ccc(N(CC2CCOC2)S(=O)(=O)c2ccc3c(cnn3CC3CCOCC3)c2)cc1 (centres unmarked) [Compound 33, 1-(tetrahydropyran-4-ylmethyl)-1H-indazole-5-sulfonic acid (4-ethylphenyl)(tetrahydrofuran-3-ylmethyl)amide]
> 1000 nM | CCc1ccc(N(CC(C)C)S(=O)(=O)c2ccc3[nH]nc(N)c3c2)cc1 [Compound 34, 3-amino-1H-indazole-5-sulfonic acid (4-ethylphenyl)isobutylamide]
